Like-named read-outs stand apart in the source and are kept apart here.
Assays:
SCC-15 cells [1] = assay: Proliferation (CyQUANT GR, total cellular DNA content); format: cell-based, human; settings: 40 μM, 72 h, BJ vs SCC-15
Protocol: (§1) The influence of alvaxanthone and rheediaxanthone B on cell proliferation (Figure 2) was assessed by quantitative measurement of the total cellular DNA content, proportional to the cell number.
(§2) Figure 2 Proliferation of cancer (U-118 MG and SCC-15) and normal (BJ) cells after 72 h incubation with 5–40 μM alvaxanthone or 1.25–40 μM rheediaxanthone B, determined with the CyQUANT GR Cell Proliferation Assay Kit. Median results are presented of three independent experiments, each performed in triplicate. The whiskers are lower (25%) and upper (75%) quartile ranges. […] Images collected with Olympus IX-83 microscope with contrast phase (scale bar = 100 µm).
(§3) Influence of selected compounds on cells was tested by performing the cytotoxicity (NR and XTT) assays, proliferation assay, cell adhesion assay, cell migration assay, determination of intracellular ATP level, and apoptosis assay as previously reported.

U-118 MG cells [2] = assay: as above; format: cell-based, human; settings: 40 μM, 72 h, BJ vs U-118 MG
Protocol: as §1, §2, §3

[3] = tested on: SCC-15 human squamous carcinoma cells; assay: Cytotoxicity, neutral red uptake (NR) assay; format: cell-based; settings: for IC50: read-out: IC50
Protocol: (§4) Biological effect of alvaxanthone and rheediaxanthone B on normal (BJ) and cancer cells (U-118 MG and SCC-15) was estimated using two viability assays, the neutral red uptake (NR) and tetrazolium salts reduction (XTT) assays.
(§5) Human glioblastoma cells U-118 MG (ATCC® HTB-15), human squamous carcinoma cells SCC-15 (ATCC® CRL-1623), and normal human skin fibroblasts (ATCC® CRL-2522) were grown, their morphology checked, and number and viability estimated as earlier presented.
as §3

[4] = tested on: U-118 MG human glioblastoma cells; assay: Cytotoxicity, neutral red uptake (NR) assay; format: cell-based; settings: U-118 MG
Protocol: as §4, §5, §3

CeTS = molecular target: T1, CeTS (Caenorhabditis elegans, UniProt Q9Y052); assay: Inhibition of TS-catalyzed reaction (tritium release from [5-3H]dUMP); format: biochemical, C. elegans; settings: 20 µM dUMP, 250 µM meTHF
T1 sequence (Q9Y052 1-315): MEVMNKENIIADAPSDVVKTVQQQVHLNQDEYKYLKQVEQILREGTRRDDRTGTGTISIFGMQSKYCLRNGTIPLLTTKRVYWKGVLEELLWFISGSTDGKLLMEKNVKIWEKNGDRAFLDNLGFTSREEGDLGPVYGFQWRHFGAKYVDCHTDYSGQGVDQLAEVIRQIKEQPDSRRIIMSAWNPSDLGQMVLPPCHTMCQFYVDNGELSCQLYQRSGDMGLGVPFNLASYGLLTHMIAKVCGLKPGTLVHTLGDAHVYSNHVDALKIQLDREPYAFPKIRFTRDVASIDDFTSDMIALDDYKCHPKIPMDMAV
Source text: (§6) The recombinant human, rat, mouse, T. spiralis and C. elegans TS proteins were produced, purified and separated into phosphorylated and non-phosphorylated fraction, as previously described. TS activity was monitored, following tritium release from [5-^3H]dUMP, and its inhibition studied as earlier reported.

BJ cells = assay: Cell adhesion, crystal violet assay; format: cell-based, human; settings: 48-h treatment
Protocol: (§7) Cancer metastasis, resulting from an impairment of adhesion between cancer cells and the extracellular matrix may cause cell migration from a primary tumor into distant parts of an organism. The cristal violet assay was used to examine alvaxanthone and rheediaxanthone B ability to influence cellular adhesion.
(§8) Figure 3 Influence of alvaxanthone or rheediaxanthone B on BJ, U-118 MG, and SCC-15 cells adhesion after 48-h treatment. The crystal violet assay was used. Results are medians of triplicate assays of three independent experiments expressed as a % of non-treated controls. The whiskers are lower (25%) and upper (75%) quartile ranges. * p ≤ 0.05, Kruskal–Wallis test (against non-treated control).
as §3

SCC-15 cells [5] = assay: Cell adhesion, crystal violet assay; format: cell-based, human; settings: 48-h treatment
Protocol: as §7, §8, §3

U-118 MG cells [6] = assay: Cell adhesion, crystal violet assay; format: cell-based, human; settings: 48-h treatment
Protocol: as §7, §8, §3

[7] = tested on: caspases 3/7 in BJ, U-118 MG, and SCC-15 cells; assay: Apo-ONE Homogenous Caspase-3/7 Assay; format: cell-based, human; settings: 48 h, 5–40 µM, span over the three cell lines
Protocol: Figure 4 Changes of caspase-3/7 activities and intracellular ATP level in BJ, U-118 MG, and SCC-15 cells after 48-h incubation with 5–40 µM alvaxanthone or rheediaxanthone B. Median results are presented of three independent experiments, each performed in triplicate. The whiskers are lower (25%) and upper (75%) quartile ranges.
The Apo-ONE® Homogenous Caspase-3/7 Assay provides a measurement of the executioner caspases 3/7 activation, characteristic for apoptosis induced via both the intrinsic and extrinsic pathway. It was used to determine apoptosis induction in cells by alvaxanthone and rheediaxanthone B. In each of the three cell lines, compared to the respective non-treated control, treatment with each of the two compounds for 48 h led to a significant activation of the caspases 3/7 (by 2- to 10-fold for alvaxanthone and 8- to 18-fold for rheediaxanthone B), the effect being stronger in cancer than normal cells (Figure 4).
as §3

[8] = tested on: normal human gingival fibroblasts (HGF); set-up: method as in Hou et al. [41]; settings: 24 h incubation; ref Hou et al. [41]; cited from earlier work
mTS = molecular target: T2, mTS (Mus musculus, UniProt P07607); assay: Inhibition of TS-catalyzed reaction (tritium release from [5-3H]dUMP); format: biochemical; settings: 20 µM dUMP, 250 µM meTHF
T2 construct: made in house
T2 sequence (P07607 whole entry): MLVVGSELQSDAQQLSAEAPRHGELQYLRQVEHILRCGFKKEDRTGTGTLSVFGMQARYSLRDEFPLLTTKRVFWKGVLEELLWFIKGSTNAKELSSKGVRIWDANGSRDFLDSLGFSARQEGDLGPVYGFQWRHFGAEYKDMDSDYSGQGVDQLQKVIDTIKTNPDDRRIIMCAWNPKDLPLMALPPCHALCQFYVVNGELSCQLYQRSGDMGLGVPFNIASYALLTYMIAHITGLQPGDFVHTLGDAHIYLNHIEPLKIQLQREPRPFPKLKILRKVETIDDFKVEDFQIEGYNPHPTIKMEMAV
Source text: as §6

hTS = molecular target: T3, hTS (Homo sapiens, UniProt P04818); assay: as above; format: biochemical
T3 construct: made in house
T3 sequence (P04818 whole entry): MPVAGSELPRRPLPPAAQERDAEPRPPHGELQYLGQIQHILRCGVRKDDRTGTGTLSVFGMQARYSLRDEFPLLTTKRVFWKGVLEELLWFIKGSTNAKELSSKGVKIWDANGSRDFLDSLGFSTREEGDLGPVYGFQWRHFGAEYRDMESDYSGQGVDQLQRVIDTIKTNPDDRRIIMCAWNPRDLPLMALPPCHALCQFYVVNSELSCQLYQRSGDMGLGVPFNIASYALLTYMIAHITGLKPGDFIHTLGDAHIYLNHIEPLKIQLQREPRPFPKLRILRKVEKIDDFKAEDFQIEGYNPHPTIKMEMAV
Source text: as §6

SCC-15 cells [9] = assay: Tetrazolium salts reduction (XTT) assay; format: cell-based, human
Protocol: as §4
(§9) Thus, alvaxanthone may be damaging mitochondria and impairing their metabolism exerting one of possible mechanisms active in destroying cancer cells. Changes of cell morphology in dependence on increasing alvaxanthone and rheediaxanthone B concentration were also recorded. While the glioma and squamous carcinoma cells formed clusters, lost their adhesion, shrank, and accumulated less NR dye, normal fibroblasts preserved rather normal shapes but the amount of the neutral red dye and confluence of cells decreased. In addition, a lower number of BJ cells was detected (Figure 1B).
as §3

U-118 MG cells [10] = assay: Tetrazolium salts reduction (XTT) assay; format: cell-based, human; settings: U-118 MG vs BJ, 48 h
Protocol: as §4, §9, §3

[11] = tested on: BJ, U-118 MG and SCC-15 cells; assay: NR assay, summary over the three cell lines; format: cell-based, human; settings: 48 h, span over BJ
Protocol: as §4, §9, §3

[12] = compound 100 µM, read-out: % Remaining Activity

Compound: C=CC(C)(C)c1c(O)cc2oc3c(O)c(O)cc(CC=C(C)C)c3c(=O)c2c1O [Alvaxanthone (15), Alvaxanthone]
- proliferation inhibition weaker with normal (BJ) than cancer cells (SCC-15 cells [1]): 5.8 fold
- proliferation inhibition weaker with normal (BJ) than cancer cells (U-118 MG cells [2]): 2.3 fold
- viability at 40 µM ([3]; Homo sapiens, NR assay, 40 µM, 48 h): 1.5%
- IC50 ([3]; Homo sapiens, SCC-15, neutral red assay): 17 µM
- IC50 ([3]; neutral red assay): 17.7 µM
- viability at 40 µM ([4]; NR assay, 40 µM, 48 h): 10%
- IC50 ([4]; neutral red assay, read-out: IC50): 13.1 µM
- remaining activity at 10 µM (CeTS; compound 10 µM): 85%
- remaining activity at 100 µM (CeTS; [12]): 18%
- concentration at which reduction of adhesion is significant/apparent (BJ cells): 20 µM
- concentration at which reduction of adhesion is significant/apparent (SCC-15 cells [5]): 20 µM
- concentration at which reduction of adhesion is significant/apparent (U-118 MG cells [6]): 40 µM
- activation of the caspases 3/7 compared to non-treated control [7]: 2- to 10 fold
- IC50 [8]: 25 µM
- remaining activity at 10 µM (mTS; compound 10 µM): 79%
- remaining activity at 100 µM (mTS; [12]): 40%
- IC50 (hTS; 20 µM dUMP and 50 µM meTHF, mean ± S.E.M. (N=3) for alvaxanthone, rheediaxanthone B not repeated, read-out: IC50): 6.3 ± 1.6 µM
- IC50 (hTS; 20 µM dUMP, 250 µM meTHF, read-out: IC50 Assessment): < 10 µM
- remaining activity at 10 µM (hTS; compound 10 µM, 20 µM dUMP, 250 µM meTHF): 39%
- IC50 (SCC-15 cells [9]; Homo sapiens, SCC-15): 17 µM
- selectivity: more sensitive compared to BJ fibroblasts (SCC-15 cells [9]; SCC-15 vs BJ, 48 h): 5.3 fold
- selectivity: more sensitive compared to BJ fibroblasts (U-118 MG cells [10]): 2.7 fold
- IC50 ([11]; Homo sapiens): > 15 µM
- IC50 [11]: < 18 µM
